Test results as given in ChEMBL document CHEMBL5154881, “Discovery of First-in-Class TAK1-MKK3 Protein-Protein Interaction (PPI) Inhibitor (R)-STU104 for the Treatment of Ulcerative Colitis through Modulating TNF-α Production” (J Med Chem, 2022).
Active and inactive are the calls of the source. The calls are words filed in the database; no cut-off is given here.

What was measured:
[1] = system: Mus musculus; test: Antiinflammatory activity against DSS-induced C57BL/6 mouse model of acute ulcerative colitis assessed as inhibition ratio of IL-23 mRNA expression in colon tissue at 1 mg/kg, IG via gavage measured after 7 days by RT-qPCR analysis relative to control; type: functional; set-up: scale not given: the % may be the effect or the level left; details: time 7 day
[2] = system: Mus musculus; test: Anti-ulcerative colitis activity in DSS-induced C57BL/6 mouse ulcerative colitis model assessed as colon length recovery ratio at 10 mg/kg, IG via gavage measured after 7 days relative to control; type: functional; details: time 7 day
[3] = system: P-gp (human); test: Efflux ratio of apparent permeability in dog MDCK-MDR1 cells transfected with human P-gp; type: ADME, cell-based, Canis lupus familiaris
[4] = Toxicity in C57 mouse assessed as spleen damage at 50 to 500 mg/kg, po administered daily for 14 days; type: organism-based; details: in vivo, 336 h, dose 50-500 mg/kg, time 14 day
[5] = system: Mus musculus; test: Antiinflammatory activity against DSS-induced C57BL/6 mouse model of acute ulcerative colitis assessed as inhibition ratio of IL-1beta protein expression at 1 mg/kg, IG via gavage measured after 7 days by ELISA relative to control; type: functional; set-up: scale not given: the % may be the effect or the level left; details: time 7 day
[6] = system: Mus musculus; test: Antiinflammatory activity against IL-10-/- C57BL/6 mouse model of acute ulcerative colitis assessed as decrease in serum IL-23 levels administered intragastrically via gavage measured after 8 weeks by ELISA; type: functional, organism-based; details: dose 3-10 mg/kg, route ig, DDE = dose-dependent effect
[7] = system: Mus musculus; test: Anti-ulcerative colitis activity in IL-10-/- C57BL/6 mouse ulcerative colitis model assessed as animal survival at 3 to 10 mg/kg, IG via gavage for 8 weeks; type: functional, organism-based; details: dose 3-10 mg/kg
[8] = MRT (0 to infinity) in 12 hr starved C57 mouse at 5 mg/kg, iv measured for 0.083 to 24 hrs post-dose by LC-MS-MS analysis; type: ADME, organism-based; details: in vivo, time 0.083-24 hrs
[9] = biological target: T1, Dual specificity mitogen-activated protein kinase kinase 3 (Homo sapiens, UniProt P46734); test: Binding affinity to CM5 chip immobilized human MKK3 (20 to 347 residues) expressed in Escherichia coli BL21 (DE3) assessed as dissociation constant, Kd by surface plasmon resonance analysis
T1 sequence (P46734 whole entry): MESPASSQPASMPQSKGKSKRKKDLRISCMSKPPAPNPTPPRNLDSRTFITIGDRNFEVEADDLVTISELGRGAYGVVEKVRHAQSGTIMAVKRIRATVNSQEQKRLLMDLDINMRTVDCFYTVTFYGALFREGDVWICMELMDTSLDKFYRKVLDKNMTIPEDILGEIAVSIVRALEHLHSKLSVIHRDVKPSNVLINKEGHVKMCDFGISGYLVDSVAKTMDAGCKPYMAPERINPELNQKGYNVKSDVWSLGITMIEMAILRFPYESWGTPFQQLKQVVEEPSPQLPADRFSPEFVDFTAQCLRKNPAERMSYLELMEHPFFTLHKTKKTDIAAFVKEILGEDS

[10] = system: Mus musculus; test: Antiinflammatory activity against IL-10-/- C57BL/6 mouse model of ulcerative colitis assessed as inhibition ratio of IL-6 mRNA expression in colon tissue at 10 mg/kg, IG via gavage and measured after 8 weeks by RT-qPCR analysis relative to control; type: functional; set-up: scale not given: the % may be the effect or the level left
[11] = system: Mus musculus; test: Antiinflammatory activity against DSS-induced C57BL/6 mouse model of acute ulcerative colitis assessed as reduction in serum IL-1beta levels administered intragastrically via gavage measured after 7 days by ELISA; type: functional, organism-based; details: dose 1-10 mg/kg, route ig, time 7.0 day, DDE = dose-dependent effect
[12] = system: Mus musculus; test: Antiinflammatory activity against DSS-induced C57BL/6 mouse model of acute ulcerative colitis assessed as inhibition ratio of IL-23 protein expression at 3 mg/kg, IG via gavage measured after 7 days by ELISA relative to control; type: functional; set-up: scale not given: the % may be the effect or the level left; details: time 7 day
[13] = system: Mus musculus; test: Anti-ulcerative colitis activity against DSS-induced ulcerative colitis C57BL/6 mouse model assessed as reduction in DAI score at 1 mg/kg, IG via gavage administered for 7 days and measured everyday (reference value: 4.0); type: functional; details: time 7 day
[14] = system: RAW264.7; test: Inhibition of LPS-induced TNFalpha production in mouse RAW264.7 cells at 50 uM preincubated for 2 hrs followed by LPS treatment for 24 hrs by RT-qPCR analysis relative to control; type: functional; details: time 26 hrs
[15] = AUC (0 to infinity) in 12 hr starved C57 mouse at 5 mg/kg, iv measured for 0.083 to 24 hrs post-dose by LC-MS-MS analysis; type: ADME, organism-based; set-up: time upper 24 hrs, time lower 0.083 hrs, dose 5 mg/kg, route iv; details: in vivo
[16] = Metabolic stability in human liver microsomes assessed as intrinsic clearance at […] measured upto 60 mins in presence of NADPH by HPLC-MS analysis; type: ADME, Microsome; set-up: dose or concentration left out as unconfirmed; details: 1 h
[17] = system: Mus musculus; test: Inhibition of MKK3-p38 MAPK-elF4E signaling pathway in C57BL/6 mouse model of acute ulcerative colitis assessed as decrease in DSS-induced MKK3 phosphorylation in colon tissue administered intragastrically via gavage measured after 7 days by Western blot analysis; details: dose 1-50 mg/kg, time 7.0 day, DDE = dose-dependent effect
[18] = system: P-gp (human); test: Apparent permeability in dog MDCK-MDR1 cells transfected with human P-gp; type: ADME, cell-based, Canis lupus familiaris
[19] = system: Mus musculus; test: Antiinflammatory activity against IL-10-/- C57BL/6 mouse model of ulcerative colitis assessed as inhibition ratio of TNF-alpha protein expression at 3 mg/kg, IG via gavage and measured after 8 weeks by ELISA relative to control; type: functional; set-up: scale not given: the % may be the effect or the level left
[20] = biological target: T2, Dual specificity mitogen-activated protein kinase kinase 3 (Homo sapiens) (UniProt P46734); test: Inhibition of human MMK3 at 50 uM using SAPK2a as substrate incubated for 120 mins in presence of [gamma-33P]-ATP by scintillation counting method relative to control
T2 sequence (whole entry): T1 sequence (P46734 whole entry)

[21] = system: Mus musculus; test: Antiinflammatory activity against IL-10-/- C57BL/6 mouse model of ulcerative colitis assessed as inhibition ratio of IL-23 protein expression at 3 mg/kg, IG via gavage and measured after 8 weeks by ELISA relative to control; type: functional; set-up: scale not given: the % may be the effect or the level left
[22] = system: Mus musculus; test: Antiinflammatory activity against DSS-induced C57BL/6 mouse model of acute ulcerative colitis assessed as inhibition ratio of TNF-alpha mRNA expression in colon tissue at 10 mg/kg, IG via gavage measured after 7 days by RT-qPCR analysis relative to control; type: functional; set-up: scale not given: the % may be the effect or the level left; details: time 7 day
[23] = system: Mus musculus; test: Antiinflammatory activity against IL-10-/- C57BL/6 mouse model of ulcerative colitis assessed as inhibition ratio of TNF-alpha protein expression at 1 mg/kg, IG via gavage and measured after 8 weeks by ELISA relative to control; type: functional; set-up: scale not given: the % may be the effect or the level left
[24] = system: Mus musculus; test: Antiinflammatory activity against DSS-induced C57BL/6 mouse model of acute ulcerative colitis assessed as reduction in serum IL-23 levels administered intragastrically via gavage measured after 7 days by ELISA; type: functional, organism-based; details: dose 1-10 mg/kg, route ig, time 7.0 day, DDE = dose-dependent effect
[25] = system: Mus musculus; test: Antiinflammatory activity against IL-10-/- C57BL/6 mouse model of ulcerative colitis assessed as inhibition ratio of IL-1beta protein expression at 10 mg/kg, IG via gavage and measured after 8 weeks by ELISA relative to control; type: functional; set-up: scale not given: the % may be the effect or the level left

COc1ccc([C@H]2CC(=O)c3cc(OC)cc(OC)c32)cc1
Activity [1]: 71.7%
Activity [2]: 57.6%
efflux ratio [3]: 0.33
Activity [4]: Non-Toxic
Activity [5]: 46.9%
Activity [6]: Dde
Activity [7]: Active
MRT inf [8]: 7.32 h
Kd [9]: 3.61 10^-3/s
Activity [10]: 48.6%
Activity [11]: Dde
Activity [12]: 51.6%
Activity [13]: 3.2
inhibition at 50 µM [14]: 62.3%
AUC(0-inf) [15]: 8640 ng·h/mL
CLH [16]: 46 mL/min/g
inhibition [17]: Dde
Papp [18]: 23.3 ×10⁻⁶ cm/s
Activity [19]: 60.3%
inhibition [20]: < 10%
Activity [21]: 58.2%
Activity [22]: 78.5%
Activity [23]: 40.2%
Activity [24]: Dde
Activity [25]: 51.8%
